Reference: ChEMBL document CHEMBL1201862, “PubChem BioAssay data set” (2004)
Where “and” joins values, the source holds several entries; their conditions need not be identical. Identical values can stand only once.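 Test compounds were applied to cells in 96-well plates for 48 hours at 5 doses. GI50 is the concentration that inhibits growth by half.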 Calls of active or inactive are those of the source. Rule as the data show it: active = GI50 up to about 1.1 µM and inactive = higher.

Assays:
Assay in all cases: NCI-60 cell line screen, 48 h
A498 = system: A498
BT-549 = system: BT-549
CAKI-1 = system: CAKI-1
COLO 205 = system: COLO 205
DU-145 = system: DU-145
HCC 2998 = system: HCC 2998
HL-60 = system: HL-60
HOP-62 = system: HOP-62
K562 = system: K562
LOX IMVI = system: LOX IMVI
MDA-MB-231 = system: MDA-MB-231
MOLT-4 = system: MOLT-4
Malme-3M = system: Malme-3M
NCI-H23 = system: NCI-H23
NCI/ADR-RES = system: NCI/ADR-RES
OVCAR-3 = system: OVCAR-3
OVCAR-5 = system: OVCAR-5
PC-3 = system: PC-3
RPMI-8226 = system: RPMI-8226
RXF 393 = system: RXF 393
SF-268 = system: SF-268
SK-MEL-2 = system: SK-MEL-2
SK-MEL-5 = system: SK-MEL-5
SNB-19 = system: SNB-19
SNB-75 = system: SNB-75
T47D = system: T47D
TK-10 = system: TK-10
UACC-257 = system: UACC-257
UO-31 = system: UO-31
786-0 = system: 786-0
A549 = system: A549
ACHN = system: ACHN
CCRF-CEM = system: CCRF-CEM
EKVX = system: EKVX
HCT-116 = system: HCT-116
HCT-15 = system: HCT-15
HOP-92 = system: HOP-92
HT-29 = system: HT-29
Hs-578T = system: Hs-578T
IGROV-1 = system: IGROV-1
KM12 = system: KM12
M14 = system: M14
MCF7 = system: MCF7
MDA-MB-435 = system: MDA-MB-435
MDA-N = system: MDA-N
NCI-H226 = system: NCI-H226
NCI-H460 = system: NCI-H460
NCI-H522 = system: NCI-H522
OVCAR-4 = system: OVCAR-4
OVCAR-8 = system: OVCAR-8
SF-295 = system: SF-295
SF-539 = system: SF-539
SK-MEL-28 = system: SK-MEL-28
SK-OV-3 = system: SK-OV-3
SN12C = system: SN12C
SR = system: SR
SW-620 = system: SW-620
U-251 = system: U-251
UACC-62 = system: UACC-62

Measured: GI50

CC(C)=CCC/C(C)=C\CCC1(C)OC(=O)C2CC21 (stereo not given)
inactive: A498 98.9 µM | BT-549 31.8 µM and 34 µM | CAKI-1 23.8 µM and 32.3 µM | COLO 205 49.1 µM and 59.8 µM | DU-145 92.7 µM | HCC 2998 21.1 µM and 36.1 µM | HL-60 18.5 µM and 12.3 µM | HOP-62 > 100 µM and 53.5 µM | K562 22.4 µM and 17.2 µM | LOX IMVI 15 µM and 27.7 µM | MDA-MB-231 50.5 µM | MOLT-4 18.1 µM and 22.7 µM | Malme-3M 80.2 µM | NCI-H23 28.7 µM and 40.4 µM | NCI/ADR-RES 42.4 µM and 33.3 µM | OVCAR-3 51.5 µM and 27.5 µM | OVCAR-5 > 100 µM | PC-3 25.9 µM and 35.4 µM | RPMI-8226 28.3 µM and 19.7 µM | RXF 393 40.6 µM | SF-268 > 100 µM | SK-MEL-2 45.6 µM | SK-MEL-5 43.6 µM and 41.1 µM | SNB-19 > 100 µM and 71.1 µM | SNB-75 55.7 µM | T47D > 100 µM and 63.4 µM | TK-10 56.6 µM | UACC-257 73.6 µM and 47.3 µM | UO-31 44.4 µM and 37.2 µM

CCCCCCCCCCCCCCCCCCOCC(CCP(=O)(CP(=O)(O)O)Oc1ccccc1)OCCCCCCCCCCCCCCCCCC (stereo not given)
inactive: 786-0 > 100 µM | A498 > 100 µM | A549 > 100 µM | ACHN > 100 µM | CAKI-1 > 100 µM | CCRF-CEM > 100 µM | COLO 205 > 100 µM | DU-145 > 100 µM | EKVX > 100 µM | HCC 2998 > 100 µM | HCT-116 > 100 µM | HL-60 > 100 µM | HOP-62 > 100 µM | HOP-92 > 100 µM | HT-29 > 100 µM | Hs-578T > 100 µM | IGROV-1 > 100 µM | K562 > 100 µM | KM12 > 100 µM | LOX IMVI > 100 µM | M14 > 100 µM | MCF7 > 100 µM | MDA-MB-231 > 100 µM | MDA-MB-435 > 100 µM | MDA-N > 100 µM | MOLT-4 > 100 µM | Malme-3M > 100 µM | NCI-H226 > 100 µM | NCI-H23 > 100 µM | NCI-H460 > 100 µM | NCI-H522 > 100 µM | NCI/ADR-RES > 100 µM | OVCAR-3 > 100 µM | OVCAR-4 > 100 µM | OVCAR-5 > 100 µM | OVCAR-8 > 100 µM | PC-3 > 100 µM | RPMI-8226 > 100 µM | RXF 393 > 100 µM | SF-268 > 100 µM | SF-295 > 100 µM | SF-539 > 100 µM | SK-MEL-28 > 100 µM | SK-MEL-5 > 100 µM | SK-OV-3 > 100 µM | SN12C > 100 µM | SNB-19 > 100 µM | SNB-75 > 100 µM | SR > 100 µM | SW-620 > 100 µM | T47D > 100 µM | TK-10 > 100 µM | U-251 > 100 µM | UACC-257 > 100 µM | UACC-62 > 100 µM
> 100 µM: HCT-15
